This passage reports relative viability results from the supplement of paper PMC10307832.

One test concerns NCI-H1651. As to the kind of experiment: relative viability (nuclei count vs DMSO), 5 days (fraction); higher = more cells survive. To be noted: first compound 0.8 µM. The essentials: (§1)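 Relative viability is defined as nuclei in treated wells over nuclei in vehicle wells. Duplicate plates were run and medians reported. Lung cancer cell lines in 1536-well plates were dosed by pin tool one day after seeding, with one drug or with a fixed anchor-drug dose plus five library-drug doses (not always all listed) in √10 steps, and nuclei were counted after 5 days.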
The compound `CCCCCCCCCCCC1=C(O)C(=O)C=C(O)C1=O` [Embelin] + Nc1ncn([C@H]2C[C@H](O)[C@@H](CO)O2)c(=O)n1 [Decitabine] (partner 2 µM) registered a relative viability of 0.67.
Same read-out and setting: the same measure for `CCCCCCCCCCCC1=C(O)C(=O)C=C(O)C1=O` [Embelin] + NC(=O)Nc1cc(-c2cccc(F)c2)sc1C(=O)N[C@H]1CCCNC1 [AZD7762] (partner 0.2 µM): 0.549.

The test is the same for the next values; noted with them: first compound 2.53 µM.
With `CCCCCCCCCCCC1=C(O)C(=O)C=C(O)C1=O` [Embelin] + N=C(N)NC(=N)NCCc1ccccc1 [Phenformin] (partner 250 µM), the relative viability stood at 0.361.
On the same count and under the same terms, the figure for `CCCCCCCCCCCC1=C(O)C(=O)C=C(O)C1=O` [Embelin] + O=C(c1cc(Cc2n[nH]c(=O)c3ccccc23)ccc1F)N1CCN(C(=O)C2CC2)CC1 [Olaparib] (partner 8 µM) is 0.166; for `CCCCCCCCCCCC1=C(O)C(=O)C=C(O)C1=O` [Embelin] + CC(=O)Nc1cccc(-n2c(=O)n(C3CC3)c(=O)c3c(Nc4ccc(I)cc4F)n(C)c(=O)c(C)c32)c1 [Trametinib] (partner 0.02 µM) it is 0.824; for `CCCCCCCCCCCC1=C(O)C(=O)C=C(O)C1=O` [Embelin] + Nc1ncn([C@H]2C[C@H](O)[C@@H](CO)O2)c(=O)n1 [Decitabine] (partner 2 µM) it is 0.867.
On the same count and under the same terms, the figure for `CCCCCCCCCCCC1=C(O)C(=O)C=C(O)C1=O` [Embelin] + NC(=O)Nc1cc(-c2cccc(F)c2)sc1C(=O)N[C@H]1CCCNC1 [AZD7762] (partner 0.2 µM) is 0.527.

Still in this test, the particulars now being: first compound 8 µM.
On to `CCCCCCCCCCCC1=C(O)C(=O)C=C(O)C1=O` [Embelin] + N=C(N)NC(=N)NCCc1ccccc1 [Phenformin] (partner 250 µM), for which the relative viability was found to be 0.321.
`CCCCCCCCCCCC1=C(O)C(=O)C=C(O)C1=O` [Embelin] + O=C(c1cc(Cc2n[nH]c(=O)c3ccccc23)ccc1F)N1CCN(C(=O)C2CC2)CC1 [Olaparib] (partner 8 µM) yielded a relative viability of 0.191.
The compound `CCCCCCCCCCCC1=C(O)C(=O)C=C(O)C1=O` [Embelin] + CC(=O)Nc1cccc(-n2c(=O)n(C3CC3)c(=O)c3c(Nc4ccc(I)cc4F)n(C)c(=O)c(C)c32)c1 [Trametinib] (partner 0.02 µM) gave a relative viability of 0.83.
On the same count and under the same terms, the figure for `CCCCCCCCCCCC1=C(O)C(=O)C=C(O)C1=O` [Embelin] + Nc1ncn([C@H]2C[C@H](O)[C@@H](CO)O2)c(=O)n1 [Decitabine] (partner 2 µM) is 0.659.
Still for that read-out and setting: the figure for `CCCCCCCCCCCC1=C(O)C(=O)C=C(O)C1=O` [Embelin] + NC(=O)Nc1cc(-c2cccc(F)c2)sc1C(=O)N[C@H]1CCCNC1 [AZD7762] (partner 0.2 µM) is 0.46.

Another test relates to NCI-H1792. Described as above. To be noted: first compound 0.08 µM. In a few lines:
as §1
`CCCCCCCCCCCC1=C(O)C(=O)C=C(O)C1=O` [Embelin] + O=C(c1cc(Cc2n[nH]c(=O)c3ccccc23)ccc1F)N1CCN(C(=O)C2CC2)CC1 [Olaparib] (partner 8 µM) returned a relative viability of 0.507.
The same measure, in the same setting: the same measure for `CCCCCCCCCCCC1=C(O)C(=O)C=C(O)C1=O` [Embelin] + CC(=O)Nc1cccc(-n2c(=O)n(C3CC3)c(=O)c3c(Nc4ccc(I)cc4F)n(C)c(=O)c(C)c32)c1 [Trametinib] (partner 0.02 µM): 0.452; for `CCCCCCCCCCCC1=C(O)C(=O)C=C(O)C1=O` [Embelin] + Nc1ncn([C@H]2C[C@H](O)[C@@H](CO)O2)c(=O)n1 [Decitabine] (partner 2 µM): 0.603; for `CCCCCCCCCCCC1=C(O)C(=O)C=C(O)C1=O` [Embelin] + NC(=O)Nc1cc(-c2cccc(F)c2)sc1C(=O)N[C@H]1CCCNC1 [AZD7762] (partner 0.2 µM): 0.853.

The same test, now with this note: first compound 0.8 µM.
For the compound `CCCCCCCCCCCC1=C(O)C(=O)C=C(O)C1=O` [Embelin] + N=C(N)NC(=N)NCCc1ccccc1 [Phenformin] (partner 250 µM), the relative viability stood at 0.424.
Same read-out and setting: the figure for `CCCCCCCCCCCC1=C(O)C(=O)C=C(O)C1=O` [Embelin] + O=C(c1cc(Cc2n[nH]c(=O)c3ccccc23)ccc1F)N1CCN(C(=O)C2CC2)CC1 [Olaparib] (partner 8 µM) is 0.42; for `CCCCCCCCCCCC1=C(O)C(=O)C=C(O)C1=O` [Embelin] + CC(=O)Nc1cccc(-n2c(=O)n(C3CC3)c(=O)c3c(Nc4ccc(I)cc4F)n(C)c(=O)c(C)c32)c1 [Trametinib] (partner 0.02 µM) it is 0.539; for `CCCCCCCCCCCC1=C(O)C(=O)C=C(O)C1=O` [Embelin] + Nc1ncn([C@H]2C[C@H](O)[C@@H](CO)O2)c(=O)n1 [Decitabine] (partner 2 µM) it is 0.595.
Same read-out and setting: the figure for `CCCCCCCCCCCC1=C(O)C(=O)C=C(O)C1=O` [Embelin] + NC(=O)Nc1cc(-c2cccc(F)c2)sc1C(=O)N[C@H]1CCCNC1 [AZD7762] (partner 0.2 µM) is 0.849.

Staying with this test, now noted: first compound 2.53 µM.
Consider `CCCCCCCCCCCC1=C(O)C(=O)C=C(O)C1=O` [Embelin] + N=C(N)NC(=N)NCCc1ccccc1 [Phenformin] (partner 250 µM), for which the relative viability worked out at 0.271.
As to `CCCCCCCCCCCC1=C(O)C(=O)C=C(O)C1=O` [Embelin] + O=C(c1cc(Cc2n[nH]c(=O)c3ccccc23)ccc1F)N1CCN(C(=O)C2CC2)CC1 [Olaparib] (partner 8 µM), the relative viability turned out to be 0.547.
On to `CCCCCCCCCCCC1=C(O)C(=O)C=C(O)C1=O` [Embelin] + CC(=O)Nc1cccc(-n2c(=O)n(C3CC3)c(=O)c3c(Nc4ccc(I)cc4F)n(C)c(=O)c(C)c32)c1 [Trametinib] (partner 0.02 µM), for which the relative viability was 0.532.
The compound `CCCCCCCCCCCC1=C(O)C(=O)C=C(O)C1=O` [Embelin] + Nc1ncn([C@H]2C[C@H](O)[C@@H](CO)O2)c(=O)n1 [Decitabine] (partner 2 µM) yielded a relative viability of 0.615.
The same measure, in the same setting: the figure for `CCCCCCCCCCCC1=C(O)C(=O)C=C(O)C1=O` [Embelin] + NC(=O)Nc1cc(-c2cccc(F)c2)sc1C(=O)N[C@H]1CCCNC1 [AZD7762] (partner 0.2 µM) is 0.814.

Staying with this test, now noted: first compound 8 µM.
The compound `CCCCCCCCCCCC1=C(O)C(=O)C=C(O)C1=O` [Embelin] + N=C(N)NC(=N)NCCc1ccccc1 [Phenformin] (partner 250 µM) gave a relative viability of 0.218.
`CCCCCCCCCCCC1=C(O)C(=O)C=C(O)C1=O` [Embelin] + O=C(c1cc(Cc2n[nH]c(=O)c3ccccc23)ccc1F)N1CCN(C(=O)C2CC2)CC1 [Olaparib] (partner 8 µM) gave a relative viability of 0.278.
On to `CCCCCCCCCCCC1=C(O)C(=O)C=C(O)C1=O` [Embelin] + CC(=O)Nc1cccc(-n2c(=O)n(C3CC3)c(=O)c3c(Nc4ccc(I)cc4F)n(C)c(=O)c(C)c32)c1 [Trametinib] (partner 0.02 µM), for which the relative viability came out at 0.459.
The same measure, in the same setting: the same measure for `CCCCCCCCCCCC1=C(O)C(=O)C=C(O)C1=O` [Embelin] + Nc1ncn([C@H]2C[C@H](O)[C@@H](CO)O2)c(=O)n1 [Decitabine] (partner 2 µM): 0.519.
